Results from PMC11462627, “SAL0114: a novel deuterated dextromethorphan-bupropion combination with improved antidepressant efficacy and safety profile” (Frontiers in Pharmacology, 2024).
Like-named read-outs stand apart in the source and are kept apart here.

What was measured:
[1] = system: ICR mice; test: Forced swim test; assay type: in vivo; settings: FST, oral, 1 h after administration, deDM 10 and 18 mg/kg, BUP 50 mg/kg, deDM + BUP 10 + 50 and 18 + 50 mg/kg
Protocol: The mouse forced swim test was performed in a way similar to that published previously by Nguyen et al. ([Nguyen et al., 2017]) with some modifications. […] All compounds were administered orally via gavage at a volume of 10 mL/kg body weight, with the vehicle group receiving an equivalent volume of saline. 1 h after administration, mice underwent the forced swim test (FST), a widely used behavioral assay for evaluating antidepressant-like effects. Each mouse was individually placed in a transparent cylindrical tank filled with water (depth: 18 cm, temperature: 25°C ± 1°C) for a 6-min test session. The initial 2 min served as the acclimatization period and was not scored. Floating time during the subsequent 4 min was measured using ANY-Maze Version 4.63 video tracking software (Stoelting Co., Illinois, United States). Floating was defined as the minimum movement required to keep the animal’s head above water. Floating time (%) = floatting time(s)/240 s. The ANY-Maze software parameters were set as follows: acclimatization period = 120 s, test duration = 240 s, minimum immobility time = 2 s, and immobility sensitivity = 75%. To maintain consistent conditions, water was changed between the animals. […]

[2] = system: ICR mice; test: Tail suspension test; assay type: in vivo; settings: TST, oral, 1 h after administration, deDM 10 and 18 mg/kg, BUP 50 mg/kg, deDM + BUP 10 + 50 and 18 + 50 mg/kg
Protocol: The TST was adapted from the behavioral despair test described by Nguyen et al. ([Nguyen et al., 2017]), with some modifications. […] All compounds were administered orally via gavage at a volume of 10 mL/kg body weight, with the vehicle group receiving an equivalent volume of saline. One hour after administration, mice underwent a tail suspension test (TST). For the TST, each mouse was suspended by its tail, with adhesive tape attached 2 cm from the tail tip and secured to a metal rod. Care was taken to ensure a minimum distance of 15 cm between the suspended animal and the surrounding objects. The test was performed using the ANY-maze version 4.63 video tracking program (Stoelting Co., Wood Dale, IL, United States) for a total duration of 6 min. The initial 2 min served as an acclimatization period and were not scored. The immobility time during the subsequent 4 min was measured using the same software. Immobility was defined as mouse hanging passively and motionless. The ANY-Maze software parameters were set as follows: acclimatization period = 120 s, test duration = 240 s, minimum immobility time = 2 s, and immobility sensitivity = 75%. […]

[3] = system: Sprague-Dawley rats; test: Reserpine-induced hypothermia in rats; assay type: in vivo; settings: reserpine 4 mg/kg i.p. rats, oral, 30 min after treatment; BUP 40 mg/kg, deDM 5 and 10 mg/kg, deDM + BUP 5 + 40 and 10 + 40 mg/kg
Protocol: A reserpine-induced hypothermia test was performed according to the method described by Rojas-Corrales et al. ([Rojas-Corrales et al., 2004]; [Dhamija et al., 2017]), with some modifications. 80 male Sprague-Dawley rats were administered an intraperitoneal injection of reserpine (4 mg/kg). 18 h after the injection, rectal temperatures were measured using a rectal probe connected to a thermometer (MC-347, Omron Healthcare, Dalian, China). Rats with body temperatures not exceeding 34.5°C were considered successfully modeled. […] An additional group of ten rats not treated with reserpine served as the normal control. After the group assignment, the second phase of compound administration was initiated. The normal and model control groups received oral saline (10 mL/kg), whereas the other groups received their respective compounds orally at the specified doses, all in an equivalent volume (10 mL/kg). Rectal temperatures were measured 30 min after treatment to assess the effect of compounds in each group on the reserpine-induced hypothermia model. All experimental procedures were conducted in strict accordance with guidelines approved by the Institutional Animal Care and Use Committee of Shenzhen Salubris Pharmaceuticals Co., Ltd. A P value of less than 0.05 was considered statistically significant for comparisons between groups.

[4] = system: C57BL/6J mice; test: Ammonia-induced cough mouse model; assay type: in vivo; settings: oral
Protocol: Antitussive effects were investigated using a classical mouse cough model induced by ammonia liquor, with some modifications ([Jiang et al., 2014]; [Adejayan et al., 2019]). An ammonia-induced cough model in male C57BL/6J mice was used to evaluate the antitussive effects using a two-step approach. The initial screening phase aimed to identify the mice with consistent and pronounced cough responses. Individual mice were exposed to 0.2 mL of 13% ammonium hydroxide solution in 500 mL glass vials. A trained observer measured the latency period and recorded the number of coughs over a 3-min period post-exposure. […] Following a 24-h recovery period, 70 eligible mice were randomly allocated to seven treatment groups (n = 10 per group) for the compound evaluation phase. […] All compounds were administered orally at a volume of 10 mL/kg. At 0.5 h post-administration, each mouse was re-exposed to 0.2 mL of 13% ammonia in a 500 mL glass jar for 1 min. Subsequently, the trained observer recorded the number of coughs over a 3-min period following removal from the jar. […] All experimental procedures were conducted in strict compliance with guidelines approved by the Institutional Animal Care and Use Committee of Shenzhen Salubris Pharmaceuticals Co., Ltd., ensuring adherence to ethical standards in animal research. A P value of less than 0.05 was considered statistically significant for comparisons between groups.

[5] = Pharmacokinetics in male SD rat after oral administration; assay type: in vivo; settings: male, SD, rat, in vivo, po, 50 mg/kg
From the text: Results expressed as mean, n=3 per group

[6] = target: T1, norepinephrine transporter (Homo sapiens, UniProt P23975); test: Norepinephrine transporter (NET) radioligand binding (3H-Nisoxetine)
T1 construct: purchased PerkinElmer, Inc RBHNETM400UA
Protocol: The experiments were carried out in the Pharmaron laboratory, and the methods were referenced from previous studies with modifications ([Bylund and Toews, 1993]; [Galli et al., 1995]). Competitive binding of the compound and ^3H-Nisoxetine to NETs was assessed using a radioligand binding method. The ability of the compound to competitively bind to NET (Ki) was determined by detecting the signal value of the radioligand bound to the transporter using a Microbeta instrument (2450, Perkin Elmer, Massachusetts, United States).

[7] = Metabolic stability in liver microsomes; assay type: in vitro ADME, human
Protocol: All incubations were performed in duplicates. Verapamil was used as the positive control. After pre-warming the mixture for 5 min, reactions were initiated by the addition of NADPH (1 mM). Samples (30 μL) were taken at 0, 20, and 60 min, and the reaction was immediately terminated by adding 150 μL acetonitrile containing an analytical internal standard (IS). Samples were centrifuged at 4,000 rpm for 5 min in a centrifuge (5810R, Eppendorf, Germany), and the supernatant was analyzed by LC-MS/MS (Thermo Scientific TSQ Quantum Ultra, United States).
The in vivo clearance values (CLint = CLint, in vitro × (mg protein/g liver weight) × (g liver weight/kg body weight)) of humans were predicted by CLint, in vitro values using physiologically-based scaling factors, hepatic microsomal protein concentrations (48.8 mg protein/g liver), and liver weights (25.7 g/kg body weight). The in vivo hepatic clearance (CLH= (Q × CLint)/(Q + CLint)) was then calculated by using CLint and hepatic blood flow, Q (20.7 mL·min^−1·kg^−1 in humans).

[8] = target: T2, Sigma-1 receptor (Homo sapiens, UniProt Q99720); test: Sigma 1 receptor radioligand binding (3H-pentazocine, Jurkat cells)
T2 construct: to the Sigma-1 receptor (Sigma-1R) of human-derived Jurkat cells; host or cells: Jurkat cells
Protocol: The experiments were carried out in the Eurofins Discovery laboratory, and the methods were referenced from previous studies with modifications ([Prasad et al., 1999]). Competitive binding of the samples and ^3H-pentazocine to the Sigma-1 receptor (Sigma-1R) of human-derived Jurkat cells was assessed using a radioligand binding method. The ability of the compound to bind competitively to the Sigma-1 receptor (Ki) was determined by detecting the signal value of the radioligand bound to the receptor.

[9] = Pharmacokinetic study in C57BL/6 mice; assay type: in vivo; settings: male, C57BL/6, mouse, plasma, po, 20 mg/kg
From the text: The assay was built in a way similar to that previously published by [Beconi et al. (2011)] with some modifications. A total of 36 male C57BL/6 mice, weighing between 20 and 22 g, were randomly divided into four groups of nine mice each. […] Mice in each group were numbered 1–9. Following the oral administration of the compounds in each group, blood was collected from the jugular vein at the specified time points, with three mice at each time point and two to three times for each mouse. 1–3 numbered mice had blood collection time points of 0.25, 1.5, and 7 h after the administration of the compounds, 4–6 numbered mice had blood collection time points of 0.5, 2, and 24 h after the administration of the compounds, and 7–9 numbered mice had blood collection time points of 1 and 5 h after the administration of the compounds. All blood samples were collected without anesthesia, and blood was collected in heparinized EP tubes. Plasma was obtained by centrifuging the blood at 10,000 rpm for 2 min at 4°C.

[10] = target: T3, serotonin transporter (Homo sapiens, UniProt P31645); test: biochemical; assay type: binding; settings: for Ki: radioligand competition, mean, n = 2
T3 construct: purchased PerkinElmer, Inc RBHSTM400UA
Protocol: The experiments were carried out in the Pharmaron laboratory, and the methods were referenced from previous studies with modifications ([Yang and Gouaux, 2021]). Competitive binding of the samples and ^3H-hydroxytryptamine creatine sulfate on SERT was assessed using a radioligand binding method. The ability of the compound to competitively bind to SERT (Ki) was determined by detecting the signal value of the radioligand bound to the transporter using a Microbeta instrument (2,450, Perkin Elmer, Massachusetts, United States).

[11] = system: NMDA receptor; settings: for Ki: read-out: Ki, NMDA receptor, 3H-MK801 competition, rat brain membranes, mean, n = 4
Protocol: Membrane preparation was performed as previously described ([Werling et al., 2007]). Briefly, the brains of male Sprague-Dawley rats were dissected for tissue collection. The tissue was then homogenized in ice-cold extraction solution and centrifuged at 40,000 × g for 10 min (minute). The supernatant was discarded, the precipitate was resuspended in extraction solution, and the above steps were repeated two times. Finally, the precipitate was resuspended in a 10-fold volume of resuspension solution and stored at −80°C. Protein concentration was determined using a PierceTM BCA Protein Assay Kit. The competitive binding of the compound and ^3H-MK801 to the NMDA receptor was evaluated utilizing the filtration binding method. This method involves washing unbound radioligands and subsequently quantifying the signal values of the radioligands bound to the NMDA receptor using a Microbeta instrument (catalog number: 2450, Perkin Elmer, Massachusetts, United States).

[12] = target: T4, nAchR α3β4 (Homo sapiens, UniProt P30926+P32297); test: nAchR α3β4 radioligand binding (125I-epibatidine, recombinant CHO-K1 cells)
T4 construct: host or cells: CHO-K1
Protocol: The experiments were carried out in the Eurofins Discovery laboratory, and the methods were referenced from previous studies with modifications ([Michelmore et al., 2002]; [Zaveri et al., 2010]). The competitive binding of the samples and ^125I-epibatidine to the nAchR α3β4 in human recombinant CHO-K1 cells was assessed using a radioligand binding method. The ability of the compound to competitively bind to nAchR α3β4 (Ki) was determined by detecting the signal value of the radioligand bound to the receptor.

T2 sequence (Q99720 whole entry): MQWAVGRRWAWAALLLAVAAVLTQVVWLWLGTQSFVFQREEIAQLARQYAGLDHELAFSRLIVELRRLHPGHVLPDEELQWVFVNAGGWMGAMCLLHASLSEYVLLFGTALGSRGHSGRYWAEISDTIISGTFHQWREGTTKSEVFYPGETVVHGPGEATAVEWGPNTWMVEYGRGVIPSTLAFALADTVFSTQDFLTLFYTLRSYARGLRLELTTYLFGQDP
T3 sequence (P31645 whole entry): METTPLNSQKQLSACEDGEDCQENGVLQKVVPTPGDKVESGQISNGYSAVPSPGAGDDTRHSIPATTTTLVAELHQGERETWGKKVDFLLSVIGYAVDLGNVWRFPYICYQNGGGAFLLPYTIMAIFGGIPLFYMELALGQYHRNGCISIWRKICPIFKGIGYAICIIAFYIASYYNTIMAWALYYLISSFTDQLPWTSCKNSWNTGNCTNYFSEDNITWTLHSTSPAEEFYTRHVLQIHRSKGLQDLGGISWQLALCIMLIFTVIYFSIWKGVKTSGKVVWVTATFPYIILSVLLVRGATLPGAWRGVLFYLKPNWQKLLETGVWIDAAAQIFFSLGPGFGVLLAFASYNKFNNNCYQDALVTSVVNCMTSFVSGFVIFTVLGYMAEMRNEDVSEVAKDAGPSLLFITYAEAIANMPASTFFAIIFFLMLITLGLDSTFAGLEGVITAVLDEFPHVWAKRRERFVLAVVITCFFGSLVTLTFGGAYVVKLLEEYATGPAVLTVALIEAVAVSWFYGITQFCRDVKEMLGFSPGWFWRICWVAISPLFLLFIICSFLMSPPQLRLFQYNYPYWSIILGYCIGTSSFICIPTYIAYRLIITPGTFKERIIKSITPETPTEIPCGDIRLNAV
T1 sequence (P23975 whole entry): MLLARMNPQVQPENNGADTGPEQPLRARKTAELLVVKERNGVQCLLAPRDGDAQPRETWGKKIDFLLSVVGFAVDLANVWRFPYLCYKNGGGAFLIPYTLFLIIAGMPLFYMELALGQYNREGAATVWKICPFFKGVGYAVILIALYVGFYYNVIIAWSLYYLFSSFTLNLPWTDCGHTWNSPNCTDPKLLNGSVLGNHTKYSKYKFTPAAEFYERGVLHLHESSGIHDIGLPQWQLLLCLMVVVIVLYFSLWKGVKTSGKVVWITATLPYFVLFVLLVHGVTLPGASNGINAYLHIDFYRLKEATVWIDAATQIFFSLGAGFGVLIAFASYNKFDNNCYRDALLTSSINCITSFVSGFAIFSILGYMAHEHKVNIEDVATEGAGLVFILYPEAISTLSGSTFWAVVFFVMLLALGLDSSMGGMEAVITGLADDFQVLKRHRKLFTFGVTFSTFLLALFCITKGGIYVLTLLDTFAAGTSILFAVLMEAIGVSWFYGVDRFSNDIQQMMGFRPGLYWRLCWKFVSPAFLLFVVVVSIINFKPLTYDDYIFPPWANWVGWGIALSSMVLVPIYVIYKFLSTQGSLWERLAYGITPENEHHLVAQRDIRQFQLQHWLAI
T4 sequence (P32297 32-505): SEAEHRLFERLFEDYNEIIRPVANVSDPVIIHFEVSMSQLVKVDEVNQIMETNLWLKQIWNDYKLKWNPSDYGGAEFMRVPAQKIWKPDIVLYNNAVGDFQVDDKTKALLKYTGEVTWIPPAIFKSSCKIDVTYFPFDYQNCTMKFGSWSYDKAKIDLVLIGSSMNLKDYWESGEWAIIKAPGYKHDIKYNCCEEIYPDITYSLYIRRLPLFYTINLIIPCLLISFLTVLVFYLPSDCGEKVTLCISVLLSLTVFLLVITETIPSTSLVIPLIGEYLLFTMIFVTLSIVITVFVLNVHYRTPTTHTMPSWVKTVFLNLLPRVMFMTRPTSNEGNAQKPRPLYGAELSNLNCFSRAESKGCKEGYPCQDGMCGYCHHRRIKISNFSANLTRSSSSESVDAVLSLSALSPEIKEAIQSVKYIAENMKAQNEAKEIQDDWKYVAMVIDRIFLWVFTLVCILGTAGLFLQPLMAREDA
T4 sequence (P30926 22-498): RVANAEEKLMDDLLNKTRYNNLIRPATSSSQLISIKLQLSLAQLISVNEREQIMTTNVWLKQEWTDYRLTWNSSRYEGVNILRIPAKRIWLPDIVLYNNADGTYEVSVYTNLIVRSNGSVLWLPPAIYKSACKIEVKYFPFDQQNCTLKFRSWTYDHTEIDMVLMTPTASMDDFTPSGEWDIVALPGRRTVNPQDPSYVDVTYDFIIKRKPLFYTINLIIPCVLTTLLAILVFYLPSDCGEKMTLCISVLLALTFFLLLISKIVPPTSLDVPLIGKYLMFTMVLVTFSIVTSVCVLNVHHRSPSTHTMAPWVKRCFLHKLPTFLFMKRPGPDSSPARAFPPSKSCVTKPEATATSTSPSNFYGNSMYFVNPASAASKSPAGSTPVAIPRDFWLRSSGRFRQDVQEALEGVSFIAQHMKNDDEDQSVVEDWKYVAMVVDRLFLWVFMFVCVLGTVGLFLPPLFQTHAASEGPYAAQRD

## CC(NC(C)(C)C)C(=O)c1cccc(Cl)c1 (centres unmarked) [BUP, bupropion]
[1]
  floating time compared to the vehicle group: significantly reduced the floating time
[2]
  immobilization time compared to the vehicle group: significantly reduced the immobilization time
[3]
  body temperature compared with the model (vehicle) group: significantly increased the body temperature
[4]; 40 mg/kg, 0.5 h post-administration
  cough inhibition rate: 19.5%
[4]; deDM 5 and 10 mg/kg, BUP 40 mg/kg, deDM + BUP 5 + 40 and 10 + 40 mg/kg
  cough inhibition compared with the vehicle group: neither deDM nor BUP significantly inhibited cough

## COc1ccc2c(c1)[C@]13CCCC[C@@H]1[C@H](C2)N(C)CC3 [DM, dextromethorphan]
[5]
  AUC(0-t): 0.194 µg·h/mL
[5]; read-out: Cmax
  Cmax: 0.056 µg/mL
[6]
  Ki: 20.5 µM
[7]; 1 μM, 0.5 mg/mL human liver microsomes, NADPH 1 mM, 37°C, mean, n = 2
  half-life at 1 μM: 1.24 h
[7]; human, liver microsomes, read-out: CLint, in vitro
  CLint scaled at 1 μM: 1.4 L/h/kg
[7]; in vivo hepatic clearance predicted from CLint and hepatic blood flow 20.7 mL/min/kg, human
  CLH: 0.66 L/h/kg
[8]
  Ki: 1.67 µM
[9]
  AUC(0-t): 0.184 ± 0.168 µg·h/mL
[9]; read-out: Cmax
  Cmax: 0.0749 ± 0.049 µg/mL

## CN1CC[C@@]23CCCC[C@@H]2[C@@H]1Cc1ccc(O)cc13 [DX, dextrorphan, reference compound]
[6]
  Ki: 5.67 µM
[10]
  Ki: 0.14 µM
[10]; ratio of Ki values
  lower affinity for SERT compared to DM: 17 fold
[8]
  Ki: 2.85 µM
[11]; ratio of Ki values
  higher affinity for NMDA receptors compared to DM: 7 fold
[11]
  Ki: 0.22 µM
[12]
  Ki: 9.98 µM

## deuterated dextrorphan [deDX]
[6]; 3H-Nisoxetine competition, mean, n = 2, read-out: Ki, norepinephrine transporter
  Ki: 7.93 µM
[10]
  Ki: 0.12 µM
[8]; 3H-pentazocine competition, human-derived Jurkat cells, mean, n = 2, read-out: Ki, Sigma-1 receptor
  Ki: 2.86 µM
[11]
  Ki: 0.42 µM
[12]; 125I-epibatidine competition, human recombinant CHO-K1 cells, mean, n = 2, read-out: Ki, α3β4 nicotinic acetylcholine receptors
  Ki: 15 µM
